According to ChEMBL document CHEMBL3992551, “Synthesis and evaluation of N-(benzofuran-5-yl)aromaticsulfonamide derivatives as novel HIF-1 inhibitors that possess anti-angiogenic potential” (Bioorg Med Chem, 2017):

How the values were obtained:
MDA-MB-468 = test: Antiproliferative activity against human MDA-MB-468 cells after 72 hrs under hypoxic condition by MTT assay; type: functional, cell-based; details: MDA-MB-468, 72 h
MCF7 [1] = test: Cytotoxicity against human MCF7 cells harboring HRE-driven luciferase gene; type: cell-based
MCF7 [2] = test: Antiproliferative activity against human MCF7 cells after 72 hrs under hypoxic condition by MTT assay; type: functional, cell-based; details: MCF7, 72 h
MDA-MB-231 = test: Antiproliferative activity against human MDA-MB-231 cells after 72 hrs under hypoxic condition by MTT assay; type: functional, cell-based; details: MDA-MB-231, 72 h
[3] = target: T1, Hypoxia-inducible factor 1-alpha (Homo sapiens, UniProt Q16665); test: Inhibition of HIF-1alpha (unknown origin) transcriptional activity expressed in human MCF7 cells after 24 hrs under hypoxic condition by HRE luciferase reporter gene assay; type: cell-based
Target sequence in this assay (Q16665 whole entry): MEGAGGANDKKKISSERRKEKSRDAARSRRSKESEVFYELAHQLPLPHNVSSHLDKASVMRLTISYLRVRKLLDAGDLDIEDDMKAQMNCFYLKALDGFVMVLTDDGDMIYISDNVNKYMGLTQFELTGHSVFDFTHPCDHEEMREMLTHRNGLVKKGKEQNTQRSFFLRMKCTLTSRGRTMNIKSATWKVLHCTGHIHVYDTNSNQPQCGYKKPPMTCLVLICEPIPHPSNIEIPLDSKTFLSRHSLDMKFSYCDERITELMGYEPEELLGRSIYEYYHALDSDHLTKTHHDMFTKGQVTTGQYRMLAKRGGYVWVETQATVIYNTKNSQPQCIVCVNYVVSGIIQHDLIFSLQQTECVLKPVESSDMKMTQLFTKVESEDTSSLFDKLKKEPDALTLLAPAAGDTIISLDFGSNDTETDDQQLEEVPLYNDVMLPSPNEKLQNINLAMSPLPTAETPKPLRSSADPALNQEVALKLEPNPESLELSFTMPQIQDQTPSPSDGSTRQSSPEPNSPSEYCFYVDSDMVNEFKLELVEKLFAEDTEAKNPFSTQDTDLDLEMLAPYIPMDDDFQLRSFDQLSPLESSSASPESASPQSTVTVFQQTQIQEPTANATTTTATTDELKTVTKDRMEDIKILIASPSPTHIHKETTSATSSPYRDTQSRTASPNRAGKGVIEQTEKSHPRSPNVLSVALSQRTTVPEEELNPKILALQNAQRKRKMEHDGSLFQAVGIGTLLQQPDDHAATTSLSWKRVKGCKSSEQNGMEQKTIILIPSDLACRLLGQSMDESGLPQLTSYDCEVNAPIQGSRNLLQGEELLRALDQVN

HUVEC [4] = test: Cytotoxicity against HUVEC assessed as reduction in cell viability at 2.5 to 50 uM after 24 hrs by MTT assay; type: cell-based; details: human
MCF7 [5] = test: Downregulation of HIF-1alpha protein expression level in human MCF7 cells after 24 hrs under hypoxic condition by Western blot method; type: functional, cell-based
MCF7 [6] = test: Downregulation of HIF-1alpha mRNA expression level in human MCF7 cells after 24 hrs under hypoxic condition by RT-PCR method; type: functional, cell-based
HUVEC [7] = test: Anti-migratory activity against HUVEC assessed as inhibition of hypoxia-induced cell movement after 24 hrs by wound healing assay; type: functional, cell-based; details: Homo sapiens
[8] = target: T1, Hypoxia-inducible factor 1-alpha; test: Inhibition of HIF-1alpha transcriptional activity in human MCF7 cells assessed as reduction in VEGF secretion after 24 hrs under hypoxic condition by ELISA; type: cell-based
Chorioallantoic membrane = test: Antiangiogenic activity in chicken chorioallantoic membrane assessed as inhibition of hypoxia-induced vessel formation after 3 days; type: functional; details: Gallus gallus
[9] = target: T1, Hypoxia-inducible factor 1-alpha; test: Inhibition of HIF-1alpha transcriptional activity in human MCF7 cells assessed as reduction in VEGF mRNA level after 24 hrs under hypoxic condition by RT-PCR method; type: cell-based
Target sequence in this assay (Q16665 whole entry, looked up): as the sequence (Q16665 whole entry) above

HUVEC [10] = test: Anti-angiogenic activity against HUVEC assessed as inhibition of hypoxia-induced tube formation after 24 hrs by 2-dimensional matrigel assay; type: functional, cell-based; details: Homo sapiens

Structure (SMILES) | IC50 (MDA-MB-468) | Activity (MCF7 [1]) | IC50 (MCF7 [2]) | IC50 (MDA-MB-231) | IC50 [3] | Activity (HUVEC [4]) | Activity (MCF7 [5]) | Activity (MCF7 [6]) | inhibition (HUVEC [7]) | IC50 [8] | inhibition [8] | inhibition (Chorioallantoic membrane) | inhibition [9] | inhibition (HUVEC [10])
CCOC(=O)c1oc2ccc(NS(=O)(=O)c3cccc(Cl)c3)cc2c1C | 53.7 µM | Non-Toxic | 83.9 µM | 57.3 µM | 36.6 µM |  |  |  |  |  |  |  |  | 
CCOC(=O)c1oc2ccc(NS(=O)(=O)c3cccnc3)cc2c1C | 62.9 µM | Non-Toxic | > 200 µM | 141 µM | 34.1 µM |  |  |  |  |  |  |  |  | 
CCOC(=O)c1oc2ccc(NS(=O)(=O)c3cccc(C(F)(F)F)c3)cc2c1C | 28.9 µM | Non-Toxic | 51.4 µM | 30.2 µM | 36.3 µM |  |  |  |  |  |  |  |  | 
CCOC(=O)c1oc2ccc(NS(=O)(=O)c3ccc(C(F)(F)F)cc3)cc2c1C | 27.2 µM | Non-Toxic | 48.7 µM | 24.3 µM | 41.7 µM |  |  |  |  |  |  |  |  | 
CCOC(=O)c1oc2ccc(NS(=O)(=O)c3cccc(C)c3)cc2c1C | 25.3 µM | Non-Toxic | 101 µM | 29.5 µM | 32.7 µM |  |  |  |  |  |  |  |  | 
CCOC(=O)c1oc2ccc(NS(=O)(=O)c3cccc(Br)c3)cc2c1C | 30.7 µM | Non-Toxic | 57 µM | 33.7 µM | 25.6 µM |  |  |  |  |  |  |  |  | 
CCOC(=O)c1oc2ccc(NS(=O)(=O)c3ccc(Cl)cc3)cc2c1C | 44 µM | Non-Toxic | 81.2 µM | 53.9 µM | 50 µM |  |  |  |  |  |  |  |  | 
CCOC(=O)c1oc2ccc(NS(=O)(=O)c3ccc(C)cc3)cc2c1C | 24 µM | Non-Toxic | 53.9 µM | 25.2 µM | 45.4 µM |  |  |  |  |  |  |  |  | 
CCOC(=O)c1oc2ccc(NS(=O)(=O)c3ccccc3Cl)cc2c1C | 137 µM | Non-Toxic | > 200 µM | > 200 µM | 20.8 µM |  |  |  |  |  |  |  |  | 
CCOC(=O)c1oc2ccc(NS(=O)(=O)c3ccc4ccccc4c3)cc2c1C | 15.7 µM | Non-Toxic | 20.8 µM | 21.6 µM | 22.6 µM |  |  |  |  |  |  |  |  | 
CCOC(=O)c1oc2ccc(NS(=O)(=O)c3ccccc3C)cc2c1C | 53.4 µM | Non-Toxic | 105 µM | 89.2 µM | 19.4 µM |  |  |  |  |  |  |  |  | 
CCOC(=O)c1oc2ccc(NS(=O)(=O)c3ccccc3[N+](=O)[O-])cc2c1C | 96.9 µM | Non-Toxic | 157 µM | 80.4 µM | 24.4 µM |  |  |  |  |  |  |  |  | 
CCOC(=O)c1oc2ccc(NS(=O)(=O)c3ccc([N+](=O)[O-])cc3)cc2c1C | 24 µM | Non-Toxic | 69.6 µM | 33.1 µM | 36.2 µM |  |  |  |  |  |  |  |  | 
CCOC(=O)c1oc2ccc(NS(=O)(=O)c3cccc([N+](=O)[O-])c3)cc2c1C | 30.1 µM | Non-Toxic | 74.8 µM | 59.9 µM | 29.4 µM |  |  |  |  |  |  |  |  | 
CCOC(=O)c1oc2ccc(NS(=O)(=O)c3cc(OC)ccc3OC)cc2c1C | 20.7 µM | Non-Toxic | 52.3 µM | 26.7 µM | 15.5 µM |  |  |  |  |  |  |  |  | 
CCOC(=O)c1oc2ccc(NS(=O)(=O)c3ccc(C(C)(C)C)cc3)cc2c1C | 8.1 µM | Non-Toxic | 22.1 µM | 22.4 µM | 27.1 µM |  |  |  |  |  |  |  |  | 
CCOC(=O)c1oc2ccc(NS(=O)(=O)c3ccccc3Br)cc2c1C | 138 µM | Non-Toxic | 185 µM | 179 µM | 19.9 µM |  |  |  |  |  |  |  |  | 
CCOC(=O)c1oc2ccc(NS(=O)(=O)c3ccccc3C(F)(F)F)cc2c1C | 74.9 µM | Non-Toxic | 93.9 µM | 82.4 µM | 16.5 µM |  |  |  |  |  |  |  |  | 
CCOC(=O)c1oc2ccc(NS(=O)(=O)c3cccs3)cc2c1C | 34.3 µM | Non-Toxic | 92.3 µM | 44.1 µM | 45.4 µM |  |  |  |  |  |  |  |  | 
CCOC(=O)c1oc2ccc(NS(=O)(=O)c3ccc(OC)c(OC)c3)cc2c1C | 20.5 µM | Non-Toxic | 52 µM | 35.4 µM | 12.5 µM | Non-Toxic | Dose-dependent effect | Dose-dependent effect | Dose-dependent effect | 18.8 µM | Dose-dependent effect | Dose-dependent effect | Dose-dependent effect | Dose-dependent effect
CCOC(=O)c1oc2ccc(NS(=O)(=O)c3ccc(Br)cc3)cc2c1C | 26.4 µM | Non-Toxic | 56.5 µM | 31.1 µM | 29.9 µM |  |  |  |  |  |  |  |  | 
